{
  "source": "patent US20240398845A1",
  "about": "“USE OF SGLT-2 INHIBITORS FOR THE PREVENTION AND/OR TREATMENT OF CARDIAC DISEASES IN NON-HUMAN MAMMALS EXCLUDING FELINES, IN PARTICULAR CANINES” (BOEHRINGER INGELHEIM VETMEDICA GMBH, priority 2021, published 2024)",
  "tested_on": "Beagle dogs with asymptomatic/preclinical ACVIM stage B2 MMVD",
  "assay": "Exploratory laboratory study in dogs with asymptomatic/preclinical myxomatous mitral valve disease (MMVD)",
  "format": "in vivo, dog",
  "from_the_text": "Echocardiographic findings in dogs with MMVD stage B2 include degenerative valvular changes, increased left atrial dimension (LA/AO-ratio≥1.6), and increased left ventricular end-diastolic dimensions normalized to body weight (LVIDDN≥1.7) (Keene et al., 2019). For evaluation of survival time a severity score (MINE score) based on the echocardiographic variables above, the cardiac contractility (fractional shortening, FS %), and transmitral peak E-wave velocity was initiated (Vezzosi T et al., J Vet Intern Med. 2021, 35(3):1238-1244). The MINE score is associate with the survival time and provides therefore prognostic information.\nThe objective of this study was to evaluate velagliflozin, a sodium-glucose co-transporter-2 inhibitor, as a treatment for dogs with asymptomatic/preclinical ACVIM stage B2 MMVD. Three Beagle dogs previously diagnosed with this condition by a veterinary cardiologist were included in the study.\nBaseline assessments included body weight measurements, veterinary examinations, echocardiographs, urinalysis, blood collections for hematology, biochemistry, BHB, NT-proBNP, cTnI, and erythropoietin analysis as well as radiographs to assess heart size, pulmonary edema, and congestion. On study Day 0, once daily oral administration of velagliflozin (0.05 mg/kg bodyweight) was initiated. Veterinary examinations, urinalysis, and blood collections for analysis of the above-mentioned parameters were repeated on Days 32, 59, and 91. Echocardiographs were repeated on Days 23, 58, and 93. General health observations are conducted twice daily, and body weights measured approximately every 3 weeks.\nAdditionally, the “The Mitral Insufficiency Echocardiographic” score, a severity classification of myxomatous mitral valve disease (MMVD) in dogs (MINE score) was calculated (Vezzosi et al., 2021). This score as an easy-to-use echocardiographic classification of severity of MMVD based on routinely acquired echocardiographic variables. The hypothesis was that the MINE score is clinically effective since it is associated with median survival time of the animals (see tables 5 and 6 below).",
  "key": {"[1]": {"conditions": "Azul, Day 58, velagliflozin 0.05 mg/kg bodyweight oral once daily"}},
  "data": [
    {"compound": "N#Cc1ccc([C@@H]2O[C@H](CO)[C@@H](O)[C@H](O)[C@H]2O)cc1Cc1ccc(C2CC2)cc1", "note": "[velagliflozin, Velagliflozin]", "values": [
      {"measurement": "MINE severity classification", "setting": "Azul, D93, moderate at baseline", "result": "severe"},
      {"measurement": "LVIDDN reduction from baseline", "setting": "[1]", "result": 3.56, "unit": "%"},
      {"measurement": "decrease from baseline in LA/Ao ratio", "setting": "[1]", "result": 17.3, "unit": "%"},
      {"measurement": "NT-proBNP reduction from baseline", "setting": "Azul, Day 59, within the reference range", "result": 76.3, "unit": "%"},
      {"measurement": "NT-proBNP reduction from baseline", "setting": "Azul, Day 91", "result": 45.8, "unit": "%"},
      {"measurement": "Total MINE score", "setting": "Azul, Day 93, base line 7 (Moderate), increase due to increase in FS %, might be due to cystitis", "result": "8 (Increase due to increase in FS %, also showed an"},
      {"measurement": "LVIDDN change versus baseline", "setting": "Azul, Day 93, just above baseline", "result": "+0.81%"},
      {"measurement": "LA/Ao ratio below baseline", "setting": "Azul, Day 93, velagliflozin 0.05 mg/kg bodyweight oral once daily", "result": 1.08, "unit": "%"},
      {"measurement": "adverse event in one animal", "setting": "Azul, during treatment, recovered", "result": "developed a cystitis"},
      {"measurement": "LVIDDN (in words)", "setting": "Azul, summary", "result": "no change"},
      {"measurement": "LA/AO-ratio (in words)", "setting": "Azul, summary at D93", "result": "no change"},
      {"measurement": "LVIDDN (in words)", "setting": "Birdie and Shelby, summary, within day-to-day variability", "result": "slight decrease (improvement)"},
      {"measurement": "LVIDDN reduction from baseline", "setting": "Birdie, Day 93", "result": 5.25, "unit": "%"},
      {"measurement": "MINE severity classification", "setting": "Birdie, Day 93, Mild at base line", "result": "Mild (4-5)"},
      {"measurement": "Total MINE score", "setting": "Birdie, Day 93, base line 5 (Mild)", "result": 5},
      {"measurement": "reduction from baseline in LA/Ao ratio", "setting": "Birdie, Day 93, velagliflozin 0.05 mg/kg bodyweight oral once daily", "result": 12.73, "unit": "%"},
      {"measurement": "left atrial size (in words)", "setting": "Birdie, summary, beyond day-to-day variability", "result": "normalization of the left atrial size"},
      {"measurement": "NT-proBNP reduction from baseline", "setting": "Shelby, Day 91, still above the reference range", "result": 45.6, "unit": "%"},
      {"measurement": "LVIDDN reduction from baseline", "setting": "Shelby, Day 93", "result": 3.54, "unit": "%"},
      {"measurement": "MINE severity classification", "setting": "Shelby, Day 93, Moderate at base line", "result": "Moderate (6-7)"},
      {"measurement": "Total MINE score", "setting": "Shelby, Day 93, base line 7 (Moderate), decrease due to improvement in left ventricular diameter", "result": 6},
      {"measurement": "LA/AO-ratio (in words)", "setting": "Shelby, summary, within day-to-day variability", "result": "slight increase (worsening)"},
      {"measurement": "reduction in LA/Ao ratio from baseline", "setting": "Shelby, velagliflozin 0.05 mg/kg bodyweight oral once daily", "result": "had not shown a reduction"},
      {"measurement": "survival at the time of the interim analysis", "setting": "all three dogs, D94", "result": "still alive"},
      {"measurement": "blood glucose, renal function, or serum electrolytes", "setting": "any time in any animal", "result": "no changes"},
      {"measurement": "observations following dosing", "setting": "attributed to oral administration of a liquid product", "result": "Lip smacking/licking, head shaking, grimacing, and salivating"},
      {"measurement": "most frequent abnormal observation following initiation of treatment", "setting": "group housed dogs, relationship to test product unknown, one instance also at baseline", "result": "vomit found within the housing pen"},
      {"measurement": "changes in cTnI", "setting": "three Beagle dogs, velagliflozin 0.05 mg/kg bodyweight oral once daily", "result": "do not appear to be showing a clinically significant trend"},
      {"measurement": "hematology, biochemistry, or erythropoietin parameters", "setting": "three Beagle dogs, velagliflozin 0.05 mg/kg bodyweight oral once daily, Days 32, 59, 91", "result": "No clinically significant changes"},
      {"measurement": "glucosuria", "setting": "three dogs, pharmacodynamic effectiveness", "result": "noted in all three dogs"},
      {"measurement": "development of congestive heart failure (CHF)", "setting": "three dogs, until D94, velagliflozin 0.05 mg/kg bodyweight once daily only", "result": "None of the study dogs developed congestive heart failure"},
      {"measurement": "overall disease state", "setting": "three dogs, until interim analysis at D94", "result": "stable disease states with signs of improvement"}
    ]}
  ]
}
